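Each compound was tested at five concentrations against cells in 96-well plates for 48 hours. At the GI50, growth is halved.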 Activity calls are given as the source filed them. No stated cut-off is given here; in the data, active = GI50 up to about 1.1 µM and inactive = higher.
Assays:
Assay in all cases: NCI-60 cell line screen, 48 h
SF-268 = test system: SF-268
KM12 = test system: KM12
MOLT-4 = test system: MOLT-4
MDA-MB-231 = test system: MDA-MB-231
MDA-N = test system: MDA-N
U-251 = test system: U-251
OVCAR-5 = test system: OVCAR-5
MDA-MB-435 = test system: MDA-MB-435
COLO 205 = test system: COLO 205
CCRF-CEM = test system: CCRF-CEM
A549 = test system: A549
NCI-H226 = test system: NCI-H226
SK-MEL-2 = test system: SK-MEL-2
HOP-92 = test system: HOP-92
SK-MEL-28 = test system: SK-MEL-28
PC-3 = test system: PC-3
Malme-3M = test system: Malme-3M
ACHN = test system: ACHN
UACC-257 = test system: UACC-257
BT-549 = test system: BT-549
NCI-H522 = test system: NCI-H522
SK-MEL-5 = test system: SK-MEL-5
SW-620 = test system: SW-620
IGROV-1 = test system: IGROV-1
NCI/ADR-RES = test system: NCI/ADR-RES
LOX IMVI = test system: LOX IMVI
HCT-15 = test system: HCT-15
NCI-H23 = test system: NCI-H23
NCI-H460 = test system: NCI-H460
SF-539 = test system: SF-539
M14 = test system: M14
HCT-116 = test system: HCT-116
RXF 393 = test system: RXF 393
UO-31 = test system: UO-31
DU-145 = test system: DU-145
K562 = test system: K562
UACC-62 = test system: UACC-62
SN12C = test system: SN12C
HT-29 = test system: HT-29
HCC 2998 = test system: HCC 2998
Hs-578T = test system: Hs-578T
OVCAR-4 = test system: OVCAR-4
A498 = test system: A498
TK-10 = test system: TK-10
786-0 = test system: 786-0
OVCAR-3 = test system: OVCAR-3
SR = test system: SR
OVCAR-8 = test system: OVCAR-8
HL-60 = test system: HL-60
MCF7 = test system: MCF7
SNB-75 = test system: SNB-75
HOP-62 = test system: HOP-62
RPMI-8226 = test system: RPMI-8226
T47D = test system: T47D
SF-295 = test system: SF-295
SNB-19 = test system: SNB-19
SK-OV-3 = test system: SK-OV-3
CAKI-1 = test system: CAKI-1
EKVX = test system: EKVX

COc1ccc(C2C(C#N)=C(S)N(C3OC(CO)C(O)C(O)C3O)C(c3ccccc3)=C2C(C)=O)cc1 (stereo not drawn)
GI50 (SF-268): 45.7 µM (inactive) | GI50 (KM12): > 100 µM (inactive) | GI50 (MOLT-4): 28.1 µM (inactive) | GI50 (MDA-MB-231): 95.5 µM (inactive) | GI50 (MDA-N): 37.2 µM (inactive) | GI50 (U-251): 53.2 µM (inactive) | GI50 (OVCAR-5): > 100 µM (inactive) | GI50 (MDA-MB-435): 32.6 µM (inactive) | GI50 (COLO 205): > 100 µM (inactive) | GI50 (CCRF-CEM): 63.1 µM (inactive) | GI50 (A549): > 100 µM (inactive) | GI50 (NCI-H226): > 100 µM (inactive) | GI50 (SK-MEL-2): 49.7 µM (inactive) | GI50 (HOP-92): 46.1 µM (inactive) | GI50 (SK-MEL-28): 91.8 µM (inactive) | GI50 (PC-3): 48.2 µM (inactive) | GI50 (Malme-3M): 70.6 µM (inactive) | GI50 (ACHN): 83.9 µM (inactive) | GI50 (UACC-257): 77.4 µM (inactive) | GI50 (BT-549): > 100 µM (inactive) | GI50 (NCI-H522): 26.9 µM (inactive) | GI50 (SK-MEL-5): 25.1 µM (inactive) | GI50 (SW-620): 7.18 µM (inactive) | GI50 (IGROV-1): > 100 µM (inactive) | GI50 (NCI/ADR-RES): > 100 µM (inactive) | GI50 (LOX IMVI): 60.1 µM (inactive) | GI50 (HCT-15): 74.6 µM | GI50 (NCI-H23): > 100 µM (inactive) | GI50 (NCI-H460): 88.1 µM (inactive) | GI50 (SF-539): 78.2 µM (inactive) | GI50 (M14): 65 µM (inactive) | GI50 (HCT-116): 70.6 µM (inactive) | GI50 (RXF 393): > 100 µM (inactive) | GI50 (UO-31): > 100 µM (inactive) | GI50 (DU-145): > 100 µM (inactive) | GI50 (K562): 43.6 µM (inactive) | GI50 (UACC-62): 58.6 µM (inactive) | GI50 (SN12C): > 100 µM (inactive) | GI50 (HT-29): 46.1 µM (inactive) | GI50 (HCC 2998): 92 µM (inactive) | GI50 (Hs-578T): 45.3 µM (inactive) | GI50 (OVCAR-4): > 10 µM (inactive) | GI50 (A498): > 100 µM (inactive) | GI50 (TK-10): > 100 µM (inactive) | GI50 (786-0): 67.3 µM (inactive) | GI50 (OVCAR-3): 22.2 µM (inactive) | GI50 (SR): 40.3 µM (inactive) | GI50 (OVCAR-8): 63.7 µM (inactive) | GI50 (HL-60): 39.7 µM (inactive) | GI50 (MCF7): 72.1 µM (inactive) | GI50 (SNB-75): 23.6 µM (inactive) | GI50 (HOP-62): 67.1 µM (inactive) | GI50 (RPMI-8226): 51.3 µM (inactive) | GI50 (T47D): 6.18 µM (inactive) | GI50 (SF-295): > 100 µM (inactive) | GI50 (SNB-19): 89.3 µM (inactive)

Cc1ccc([N+](=O)[O-])cc1S(=O)(=O)Nc1ccc(C2=NN(S(=O)(=O)c3cc([N+](=O)[O-])ccc3C)C(c3cccs3)C2)cc1 (stereo not drawn)
GI50 (SF-268): 28.1 µM (inactive) | GI50 (KM12): 30.1 µM (inactive) | GI50 (MOLT-4): 22.4 µM (inactive) | GI50 (MDA-MB-231): 24.9 µM (inactive) | GI50 (MDA-N): 33.7 µM (inactive) | GI50 (U-251): 30.1 µM (inactive) | GI50 (OVCAR-5): 74 µM (inactive) | GI50 (MDA-MB-435): 50 µM (inactive) | GI50 (COLO 205): 9.59 µM (inactive) | GI50 (A549): 32.7 µM (inactive) | GI50 (NCI-H226): 52.7 µM (inactive) | GI50 (SK-MEL-2): 25.3 µM (inactive) | GI50 (HOP-92): 33.7 µM (inactive) | GI50 (SK-MEL-28): 65.8 µM (inactive) | GI50 (PC-3): 30 µM (inactive) | GI50 (Malme-3M): 47.9 µM (inactive) | GI50 (ACHN): 32.4 µM (inactive) | GI50 (UACC-257): 31.5 µM (inactive) | GI50 (BT-549): 38.6 µM (inactive) | GI50 (SK-OV-3): 24.5 µM (inactive) | GI50 (NCI-H522): 26.1 µM (inactive) | GI50 (SK-MEL-5): 29 µM (inactive) | GI50 (CAKI-1): 44.1 µM (inactive) | GI50 (SW-620): 49.7 µM (inactive) | GI50 (IGROV-1): 46.3 µM (inactive) | GI50 (NCI/ADR-RES): 31.6 µM (inactive) | GI50 (LOX IMVI): 57 µM (inactive) | GI50 (HCT-15): 33.2 µM | GI50 (NCI-H23): 21.8 µM (inactive) | GI50 (NCI-H460): 28.2 µM (inactive) | GI50 (M14): 36 µM (inactive) | GI50 (HCT-116): 26.5 µM (inactive) | GI50 (RXF 393): 56.5 µM (inactive) | GI50 (UO-31): 34.5 µM (inactive) | GI50 (DU-145): 51.3 µM (inactive) | GI50 (K562): 24.2 µM (inactive) | GI50 (UACC-62): 15.8 µM (inactive) | GI50 (SN12C): 33.7 µM (inactive) | GI50 (HT-29): 38.4 µM (inactive) | GI50 (HCC 2998): 22.9 µM (inactive) | GI50 (Hs-578T): 12.8 µM (inactive) | GI50 (OVCAR-4): 37.4 µM (inactive) | GI50 (A498): 13.8 µM (inactive) | GI50 (TK-10): 38.6 µM (inactive) | GI50 (786-0): 44.2 µM (inactive) | GI50 (OVCAR-3): 19.6 µM (inactive) | GI50 (SR): 24.1 µM (inactive) | GI50 (OVCAR-8): 50.2 µM (inactive) | GI50 (HL-60): 32.9 µM (inactive) | GI50 (MCF7): 10.7 µM (inactive) | GI50 (SNB-75): > 100 µM (inactive) | GI50 (HOP-62): 30.1 µM (inactive) | GI50 (RPMI-8226): 21.9 µM (inactive) | GI50 (T47D): 21.5 µM (inactive) | GI50 (EKVX): 29 µM (inactive) | GI50 (SF-295): 21.2 µM (inactive) | GI50 (SNB-19): 45.2 µM (inactive)

Reference: ChEMBL document CHEMBL1201862, “PubChem BioAssay data set” (2004)
